Measured values as given in the supplement of paper PMC10307832.

Tests used:
Assay in all cases: relative viability (nuclei count vs DMSO), 5 days (fraction); higher = more cells survive
Erlotinib + Pemetrexed = compound: C#Cc1cccc(Nc2ncnc3cc(OCCOC)c(OCCOC)cc23)c1 [Erlotinib] + Nc1nc2[nH]cc(CCc3ccc(C(=O)N[C@@H](CCC(=O)O)C(=O)O)cc3)c2c(=O)[nH]1 [Pemetrexed] (partner 0.2 µM)
Procedure, shortened: (§1)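 Lung cancer cell lines in 1536-well plates were dosed by pin tool the day after seeding, either with one drug alone or with a fixed anchor-drug dose plus five library-drug doses (not always all listed) in √10 steps. After 5 days, cells were fixed and their nuclei stained in one step (final 0.05% Triton X-100, 1% formaldehyde, 1 ug/ml Hoechst), then counted on 4× images. Relative viability is the nuclei count in treated wells divided by that in vehicle wells. Values are medians of duplicate plates.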

Erlotinib + Olaparib = compound: C#Cc1cccc(Nc2ncnc3cc(OCCOC)c(OCCOC)cc23)c1 [Erlotinib] + O=C(c1cc(Cc2n[nH]c(=O)c3ccccc23)ccc1F)N1CCN(C(=O)C2CC2)CC1 [Olaparib] (partner 8 µM)
Procedure, shortened: as §1

Erlotinib + Crizotinib = compound: C#Cc1cccc(Nc2ncnc3cc(OCCOC)c(OCCOC)cc23)c1 [Erlotinib] + C[C@@H](Oc1cc(-c2cnn(C3CCNCC3)c2)cnc1N)c1c(Cl)ccc(F)c1Cl [Crizotinib] (partner 1 µM)
Procedure, shortened: as §1

Erlotinib + Vorinostat = compound: C#Cc1cccc(Nc2ncnc3cc(OCCOC)c(OCCOC)cc23)c1 [Erlotinib] + O=C(CCCCCCC(=O)Nc1ccccc1)NO [Vorinostat] (partner 1 µM)
Procedure, shortened: as §1

AT9283 + Luminespib = compound: O=C(Nc1c[nH]nc1-c1nc2ccc(CN3CCOCC3)cc2[nH]1)NC1CC1 [AT9283] + CCNC(=O)c1noc(-c2cc(C(C)C)c(O)cc2O)c1-c1ccc(CN2CCOCC2)cc1 [Luminespib] (partner 0.01 µM)
Procedure, shortened: as §1

NCI-H441
relative viability (Erlotinib + Pemetrexed; first compound 0.02 µM): 0.284
relative viability (Erlotinib + Pemetrexed; first compound 0.2 µM): 0.275
relative viability (Erlotinib + Pemetrexed; first compound 0.6325 µM): 0.259
relative viability (Erlotinib + Pemetrexed; first compound 2 µM): 0.275
relative viability (Erlotinib + Olaparib; first compound 0.02 µM): 0.626
relative viability (Erlotinib + Olaparib; first compound 0.2 µM): 0.54
relative viability (Erlotinib + Olaparib; first compound 0.6325 µM): 0.534
relative viability (Erlotinib + Olaparib; first compound 2 µM): 0.495
relative viability (Erlotinib + Crizotinib; first compound 0.02 µM): 0.831
relative viability (Erlotinib + Crizotinib; first compound 0.2 µM): 0.751
relative viability (Erlotinib + Crizotinib; first compound 0.6325 µM): 0.772
relative viability (Erlotinib + Crizotinib; first compound 2 µM): 0.677
relative viability (Erlotinib + Vorinostat; first compound 0.02 µM): 0.841
relative viability (Erlotinib + Vorinostat; first compound 0.2 µM): 0.725
relative viability (Erlotinib + Vorinostat; first compound 0.6325 µM): 0.84
relative viability (Erlotinib + Vorinostat; first compound 2 µM): 0.745
relative viability (AT9283 + Luminespib; first compound 0.003 µM): 0.432
relative viability (AT9283 + Luminespib; first compound 0.03 µM): 0.347
relative viability (AT9283 + Luminespib; first compound 0.09487 µM): 0.344
relative viability (AT9283 + Luminespib; first compound 0.3 µM): 0.263
